Measured values taken from US8476264B2, “N-(3-(2-amino-6,6-difluoro-4,4A,5,6,7,7A-hexahydro-cyclopenta[E][1,3]oxazin-4-yl)-phenylamides as BACE1 inhibitors” (Hoffmann-La Roche Inc., priority 2011, dated 2013).

These compounds were tested against T1, BACE1 (Homo sapiens, UniProt P56817) (assay: Cellular Aβ-lowering assay (Aβ40 ELISA)). Conditions: HEK293 cells stably expressing human APP wt (APP695); Aβ40 in supernatant after 18-20 hrs; read-out: BACE1 cell act. Aβ40 IC50.
T1 construct: Human HEK293 cells which are stably transfected with a vector expressing a cDNA of the human APP wt gene (APP695); endogenous in cells; host or cells: HEK293 stably transfected with human APP695 wt
Format: cell-based
Description: Cellular Aβ-Lowering Assay:
Human HEK293 cells which are stably transfected with a vector expressing a cDNA of the human APP wt gene (APP695) were used to assess the potency of the compounds in a cellular assay. The cells were seeded in 96-well microtiter plates in cell culture medium (Iscove, plus 10% (v/v) fetal bovine serum, glutamine, penicillin/streptomycin) to about 80% confluence and the compounds were added at a 10× concentration in 1/10 volume of medium without FCS containing 8% DMSO (final concentration of DMSO was kept at 0.8% v/v). After 18-20 hrs incubation at 37° C. and 5% CO2 in a humidified incubator the culture supernatant was harvested for the determination of Aβ40 concentrations. 96 well ELISA plates (e.g., Nunc MaxiSorb) were coated with monoclonal antibody which specifically recognize the C-terminal end of Aβ40 (Brockhaus et al., NeuroReport 9, 1481-1486; 1998). After blocking of non-specific binding sites with e.g. 1% BSA and washing, the culture supernatants were added in suitable dilutions together with a horseradish peroxidase-coupled Aβ detection antibody (e.g., antibody 4G8, Senetek, Maryland Heights, Mo.) and incubated for 5 to 7 hrs. Subsequently the wells of the microtiter plate were washed extensively with Tris-buffered saline containing 0.05% Tween 20 and the assay was developed with tetramethylbenzidine/H2O2 in citric acid buffer. After stopping the reaction with one volume 1 N H2SO4 the reaction was measured in an ELISA reader at 450 nm wavelength. The concentrations of Aβ in the culture supernatants were calculated from a standard curve obtained with known amounts of pure Aβ peptide.

T1 sequence (P56817 46-501): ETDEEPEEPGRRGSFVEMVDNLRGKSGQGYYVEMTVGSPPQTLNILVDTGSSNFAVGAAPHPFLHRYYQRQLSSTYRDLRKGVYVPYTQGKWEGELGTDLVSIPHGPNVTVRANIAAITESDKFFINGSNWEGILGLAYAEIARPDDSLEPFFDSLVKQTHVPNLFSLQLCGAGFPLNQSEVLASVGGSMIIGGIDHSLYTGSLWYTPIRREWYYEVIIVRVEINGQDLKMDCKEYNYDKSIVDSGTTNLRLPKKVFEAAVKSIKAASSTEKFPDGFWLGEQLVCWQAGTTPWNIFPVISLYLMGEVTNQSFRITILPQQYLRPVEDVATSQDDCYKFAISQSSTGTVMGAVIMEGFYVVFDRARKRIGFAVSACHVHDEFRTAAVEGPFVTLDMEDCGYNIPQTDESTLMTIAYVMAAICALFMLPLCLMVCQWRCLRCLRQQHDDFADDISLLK

Row | SMILES | IC50
1 | NC1=N[C@](CF)(c2cc(NC(=O)c3ncc(C(F)(F)F)cc3F)ccc2F)[C@H]2CC(F)(F)C[C@H]2O1 [Example 17, 3-Fluoro-5-trifluoromethyl-pyridine-2-carboxylic acid [(S)-3-((1R,2R)-2-amino-6,6-difluoro-4-fluoromethyl-4,4a,5,6,7,7a-hexahydro-cyclopenta[e][1,3]oxazin-4-yl)-4-fluoro-phenyl]-amide] | 4.1 nM
2 | NC1=N[C@](CF)(c2cc(NC(=O)c3ccc(Cl)cn3)ccc2F)[C@H]2CC(F)(F)C[C@@]2(CF)O1 [Example 47, 5-Chloro-pyridine-2-carboxylic acid [3-((1R,7aR)-2-(S)-amino-6,6-difluoro-4,7a-bis-fluoromethyl-4,4a,5,6,7,7a-hexahydro-cyclopenta[e][1,3]oxazin-4-yl)-4-fluoro-phenyl]-amide] | 85 nM
3 | COc1cnc(C(=O)Nc2ccc(F)c([C@@]3(CF)N=C(N)O[C@@H]4CC(F)(F)C[C@@H]43)c2)cn1 [Example 30, 5-Methoxy-pyrazine-2-carboxylic acid [(S)-3-((1R,2R)-2-amino-6,6-difluoro-4-fluoromethyl-4,4a,5,6,7,7a-hexahydro-cyclopenta[e][1,3]oxazin-4-yl)-4-fluoro-phenyl]-amide] | 7.6 nM
4 | NC1=N[C@@](c2cc(NC(=O)c3cnc(Cl)cn3)ccc2F)(C(F)F)[C@H]2CC(F)(F)C[C@H]2O1 [Example 39, 5-Chloro-pyrazine-2-carboxylic acid [(S)-3-((1R,2R)-2-amino-4-difluoromethyl-6,6-difluoro-4,4a,5,6,7,7a-hexahydro-cyclopenta[e][1,3]oxazin-4-yl)-4-fluoro-phenyl]-amide] | 1400 nM
5 | NC1=N[C@](CF)(c2cc(NC(=O)c3cnc(OCC4CC4)cn3)ccc2F)[C@H]2CC(F)(F)C[C@H]2O1 [Example 25, 5-Cyclopropylmethoxy-pyrazine-2-carboxylic acid [(S)-3-((1R,2R)-2-amino-6,6-difluoro-4-fluoromethyl-4,4a,5,6,7,7a-hexahydro-cyclopenta[e][1,3]oxazin-4-yl)-4-fluoro-phenyl]-amide] | 15 nM
6 | NC1=N[C@](CF)(c2cc(NC(=O)c3ncc(Cl)cn3)ccc2F)[C@H]2CC(F)(F)C[C@H]2O1 [Example 32, 5-Chloro-pyrimidine-2-carboxylic acid [(S)-3-((1R,2R)-2-amino-6,6-difluoro-4-fluoromethyl-4,4a,5,6,7,7a-hexahydro-cyclopenta[e][1,3]oxazin-4-yl)-4-fluoro-phenyl]-amide] | 7.9 nM
7 | Cc1nc(C(=O)Nc2ccc(F)c([C@@]3(C(F)F)N=C(N)O[C@@H]4CC(F)(F)C[C@@H]43)c2)co1 [Example 44, 2-Methyl-oxazole-4-carboxylic acid [(S)-3-((1R,2R)-2-amino-4-difluoromethyl-6,6-difluoro-4,4a,5,6,7,7a-hexahydro-cyclopenta[e][1,3]oxazin-4-yl)-4-fluoro-phenyl]-amide] | 42 nM
8 | NC1=N[C@](CF)(c2cc(NC(=O)c3ccc(OCC(F)(F)F)cn3)ccc2F)[C@H]2CC(F)(F)C[C@H]2O1 [Example 9, 5-(2,2,2-Trifluoro-ethoxy)-pyridine-2-carboxylic acid [(S)-3-((1R,2R)-2-amino-6,6-difluoro-4-fluoromethyl-4,4a,5,6,7,7a-hexahydro-cyclopenta[e][1,3]oxazin-4-yl)-4-fluoro-phenyl]-amide] | 17 nM
9 | NC1=N[C@](CF)(c2cc(NC(=O)c3ncc(C(F)(F)F)cc3Cl)ccc2F)[C@H]2CC(F)(F)C[C@H]2O1 [Example 16, 3-Chloro-5-trifluoromethyl-pyridine-2-carboxylic acid [(S)-3-((1R,2R)-2-amino-6,6-difluoro-4-fluoromethyl-4,4a,5,6,7,7a-hexahydro-cyclopenta[e][1,3]oxazin-4-yl)-4-fluoro-phenyl]-amide] | 0.8 nM
10 | Cc1nc(C(=O)Nc2ccc(F)c([C@@]3(CF)N=C(N)O[C@@H]4CC(F)(F)C[C@@H]43)c2)co1 [Example 33, 2-Methyl-oxazole-4-carboxylic acid [(S)-3-((1R,2R)-2-amino-6,6-difluoro-4-fluoromethyl-4,4a,5,6,7,7a-hexahydro-cyclopenta[e][1,3]oxazin-4-yl)-4-fluoro-phenyl]-amide] | 4.8 nM
11 | NC1=N[C@](CF)(c2cc(NC(=O)c3cnc(OCC(F)F)cn3)ccc2F)[C@H]2CC(F)(F)C[C@H]2O1 [Example 23, 5-(2,2-Difluoro-ethoxy)-pyrazine-2-carboxylic acid [(S)-3-((1R,2R)-2-amino-6,6-difluoro-4-fluoromethyl-4,4a,5,6,7,7a-hexahydro-cyclopenta[e][1,3]oxazin-4-yl)-4-fluoro-phenyl]-amide] | 7.8 nM
12 | NC1=N[C@](CF)(c2cc(NC(=O)c3nn(C(F)F)cc3Cl)ccc2F)[C@H]2CC(F)(F)C[C@H]2O1 [Example 35, 4-Chloro-1-difluoromethyl-1H-pyrazole-3-carboxylic acid [(S)-3-((1R,2R)-2-amino-6,6-difluoro-4-fluoromethyl-4,4a,5,6,7,7a-hexahydro-cyclopenta[e][1,3]oxazin-4-yl)-4-fluoro-phenyl]-amide] | 3 nM

Continued by falling IC50, values first:

Row | IC50 | SMILES
13 | 43 nM | NC1=N[C@](CF)(c2cc(NC(=O)c3ccc(OCC(F)(F)C(F)(F)F)cn3)ccc2F)[C@H]2CC(F)(F)C[C@H]2O1 [Example 10, 5-(2,2,3,3,3-Pentafluoro-propoxy)-pyridine-2-carboxylic acid [(S)-3-((1R,2R)-2-amino-6,6-difluoro-4-fluoromethyl-4,4a,5,6,7,7a-hexahydro-cyclopenta[e][1,3]oxazin-4-yl)-4-fluoro-phenyl]-amide]
14 | 36 nM | CC(F)(F)c1cnc(C(=O)Nc2ccc(F)c([C@@]3(CF)N=C(N)O[C@@H]4CC(F)(F)C[C@@H]43)c2)cn1 [Example 29, 5-(1,1-Difluoro-ethyl)-pyrazine-2-carboxylic acid [(S)-3-((1R,2R)-2-amino-6,6-difluoro-4-fluoromethyl-4,4a,5,6,7,7a-hexahydro-cyclopenta[e][1,3]oxazin-4-yl)-4-fluoro-phenyl]-amide]
15 | 16 nM | NC1=N[C@](CF)(c2cc(NC(=O)c3cnc(C(F)(F)F)cn3)ccc2F)[C@H]2CC(F)(F)C[C@H]2O1 [Example 28, 5-Trifluoromethyl-pyrazine-2-carboxylic acid [(S)-3-((1R,2R)-2-amino-6,6-difluoro-4-fluoromethyl-4,4a,5,6,7,7a-hexahydro-cyclopenta[e][1,3]oxazin-4-yl)-4-fluoro-phenyl]-amide]
16 | 14 nM | NC1=N[C@](CF)(c2cc(NC(=O)c3ccc(OCC(F)(F)C(F)F)cn3)ccc2F)[C@H]2CC(F)(F)C[C@H]2O1 [Example 11, 5-(2,2,3,3-Tetrafluoro-propoxy)-pyridine-2-carboxylic acid [(S)-3-((1R,2R)-2-amino-6,6-difluoro-4-fluoromethyl-4,4a,5,6,7,7a-hexahydro-cyclopenta[e][1,3]oxazin-4-yl)-4-fluoro-phenyl]-amide]
17 | 8.6 nM | NC1=N[C@](CF)(c2cc(NC(=O)c3ccc(OCC4CC4)cn3)ccc2F)[C@H]2CC(F)(F)C[C@H]2O1 [Example 12, 5-Cyclopropylmethoxy-pyridine-2-carboxylic acid [(S)-3-((1R,2R)-2-amino-6,6-difluoro-4-fluoromethyl-4,4a,5,6,7,7a-hexahydro-cyclopenta[e][1,3]oxazin-4-yl)-4-fluoro-phenyl]-amide]
18 | 5.5 nM | N#Cc1cnc(C(=O)Nc2ccc(F)c([C@@]3(CF)N=C(N)O[C@@H]4CC(F)(F)C[C@@H]43)c2)c(Cl)c1 [Example 19, 3-Chloro-5-cyano-pyridine-2-carboxylic acid [(S)-3-((1R,2R)-2-amino-6,6-difluoro-4-fluoromethyl-4,4a,5,6,7,7a-hexahydro-cyclopenta[e][1,3]oxazin-4-yl)-4-fluoro-phenyl]-amide]
19 | 2.8 nM | NC1=N[C@](CF)(c2cc(NC(=O)c3ccc(C(F)(F)F)cn3)ccc2F)[C@H]2CC(F)(F)C[C@H]2O1 [Example 15, 5-Trifluoromethyl-pyridine-2-carboxylic acid [(S)-3-((1R,2R)-2-amino-6,6-difluoro-4-fluoromethyl-4,4a,5,6,7,7a-hexahydro-cyclopenta[e][1,3]oxazin-4-yl)-4-fluoro-phenyl]-amide]
20 | 2.5 nM | NC1=N[C@](CF)(c2cc(NC(=O)c3cnc(OCC(F)(F)F)cn3)ccc2F)[C@H]2CC(F)(F)C[C@H]2O1 [Example 22, 5-(2,2,2-Trifluoro-ethoxy)-pyrazine-2-carboxylic acid [(S)-3-((1R,2R)-2-amino-6,6-difluoro-4-fluoromethyl-4,4a,5,6,7,7a-hexahydro-cyclopenta[e][1,3]oxazin-4-yl)-4-fluoro-phenyl]-amide]
